As a reminder, the IC50 is the concentration that inhibits the measured activity by half.

Experiment [1] deals with HSB-2 cells. The experiment can be described thus: Inhibition of HSB-2 leukemic cell line proliferation (WST-1). The conditions noted are these: Homo sapiens, HSB2, 48 h, cytotoxicity on HSB-2 cells, two days incubation, WST-1 read-out. In kind it is cell-based, human. The protocol:
(§1) HSB2 cell line, a human acute lymphoblastic leukemia (ATCC; CCL-120.1) cell line, was grown in RPMI-1640 medium (Lonza, Belgium) supplemented with 10% fetal calf serum (Hyclone, US) and antibiotics. Exponential growing phase cells were seed in flat bottom 96-well microplates (TTP, Switzerland) at 50000 cells per well in 220 μl of medium with compounds (in different concentrations) and incubated for two days at 37° C., 5% CO2. After incubation, 100 μl of supernatant were removed and 10 μl of WST-1 (Roche, Switzerland) were added. After 2 hour incubation at 37° C., 5% CO2, optical densities were measured at 450 nm. Proliferation is calculated with respect of control points (no compound and treatment with Triton X100 to have maximum and minimum proliferation data). The IC50 was determined from a graph with at least four points, each derived from the mean of at least 2 experiments. […] The results are shown in Table 1 for a number of compounds.
Background: Tetrazolium dyes change colour on reduction, which living cells bring about.

Experiment [2] concerns HL-60 cells. In words: Inhibition of HL-60 leukemic cell line proliferation (WST-1). The class given is cell-based, human. The conditions noted are these: Homo sapiens, 48 h; cytotoxicity on HL-60 cells, two days incubation, WST-1 read-out. The protocol:
as §1, with “HL-60 cell” for “HSB2 cell”, “human promyelocytic” for “human acute lymphoblastic”, “(ATCC; CCL-240)” for “(ATCC; CCL-120.1)”, “Table 2” for “Table 1”

On to `Cc1cccc(OCC(=O)N2CCN(c3nc(N)nc4sc(-c5ccc(F)cc5)nc34)CC2)c1` [Example 211, 1-(4-(5-amino-2-(4-fluorophenyl)thiazolo[5,4-d]pyrimidin-7-yl)piperazin-1-yl)-2-(m-tolyloxy)ethanone], for which the IC50 in experiment [1] amounted to 0.47 µM; in experiment [2], 0.69 µM.

As to `COc1ccc(-c2nc3c(N4CCN(C(=O)COc5ccc(Cl)cc5)CC4)nc(N)nc3[nH]2)cc1OC` [Example 390, 1-(4-(2-amino-8-(3,4-dimethoxyphenyl)-9H-purin-6-yl)piperazin-1-yl)-2-(4-chlorophenoxy)ethanone], the IC50 was 0.45 µM in experiment [1] and over 10 µM in experiment [2].

For `Nc1nc(N2CCN(C(=O)COc3ccc(Cl)cc3)CC2)c2ccsc2n1` [Example 351, 1-(4-(2-aminothieno[2,3-d]pyrimidin-4-yl)piperazin-1-yl)-2-(4-chlorophenoxy)ethanone], the IC50 in experiment [1] came to 1.7 µM; in experiment [2], 5.08 µM.

Take `Cc1nc2c(N3CCN(C(=O)COc4ccc(Cl)cc4)CC3)nc(N)nc2[nH]1` [Example 400, 1-(4-(2-amino-8-methyl-9H-purin-6-yl)piperazin-1-yl)-2-(4-chlorophenoxy)ethanone]: the IC50 in experiment [1] was 2.06 µM; in experiment [2], 2.98 µM.

As for `Nc1nc(N2CCN(C(=O)COc3ccccc3)CC2)c2nc(CCc3ccc(F)cc3)sc2n1` [Example 134, 5-amino-2-[2-(4-fluorophenyl)ethyl]-7-(4-[2-phenoxyacetyl]piperazin-1-yl)-thiazolo[5,4-d]pyrimidine], the IC50 in experiment [1] and in experiment [2] was over 10 µM each time.

As for `Nc1nc(N2CCN(C(=O)COc3ccc(Cl)cc3)CC2)c2cc(-c3ccccc3)sc2n1` [Example 329, 1-(4-(2-amino-6-phenylthieno[2,3-d]pyrimidin-4-yl)piperazin-1-yl)-2-(4-chlorophenoxy)ethanone], the figures for the IC50 in experiment [1] and in experiment [2] were 13.7 µM and over 10 µM, respectively.

For the compound `Nc1nc(N2CCN(C(=O)Nc3ccc(Br)cc3)CC2)c2nc(-c3ccc(F)cc3)sc2n1` [Example 218, 4-(5-amino-2-(4-fluorophenyl)thiazolo[5,4-d]pyrimidin-7-yl)-N-(4-bromophenyl)piperazine-1-carboxamide], the IC50 came to 7.05 µM in experiment [1] and 7.35 µM in experiment [2].

Turning to `Nc1nc(N2CCN(C(=O)COc3ccc(Cl)cc3)CC2)c2nc(C3(c4ccc(Cl)cc4)CC3)sc2n1` [Example 117, 5-amino-7-[4-(4-chlorophenoxyacetyl)piperazin-1-yl]-2-(1-(4-chlorophenyl)cyclopropyl)thiazolo[5,4-d]pyrimidine], the results for the IC50 in experiment [1] and in experiment [2] were 6.28 µM and over 10 µM, respectively.

For `Nc1nc(N2CCN(C(=O)COc3ccc(Cl)cc3)CC2)c2nc(C3CC3)[nH]c2n1` [Example 398, 1-(4-(2-amino-8-cyclopropyl-9H-purin-6-yl)piperazin-1-yl)-2-(4-chlorophenoxy)ethanone], the IC50 in experiment [1] amounted to 4.78 µM; in experiment [2], 6.08 µM.

For the compound `Nc1nc(N2CCN(C(=O)COc3ccc(Cl)cc3)CC2)c2nc(CCc3ccccc3)sc2n1` [Example 118, 5-amino-7-[4-(4-chlorophenoxyacetyl)piperazin-1-yl]-2-(2-phenylethyl)thiazolo[5,4-d]pyrimidine], the IC50 in experiment [1] came out at 4.53 µM; in experiment [2] it was 9.97 µM.

With `Nc1nc(N2CCN(C(=O)COc3ccc(Cl)cc3)CC2)c2nc(C3CC3)sc2n1` [Example 119, 5-amino-2-cyclopropyl-7-[4-(4-chlorophenoxyacetyl)piperazin-1-yl]-thiazolo[5,4-d]pyrimidine], the IC50 is 3.03 µM in experiment [1] and 3.81 µM in experiment [2].

Consider `Nc1nc(N2CCCN(C(=O)COc3ccc(Cl)cc3)CC2)c2nc(-c3ccc(F)cc3)[nH]c2n1` [Example 421, 1-(4-(2-amino-8-(4-fluorophenyl)-9H-purin-6-yl)-1,4-diazepan-1-yl)-2-(4-chlorophenoxy)ethanone], for which the IC50 in experiment [1] and in experiment [2] was over 10 µM each time.

For `Nc1nc(N2CCN(C(=O)COc3ccc(Cl)cc3)CC2)c2nc(CCc3ccccc3)oc2n1` [Example 189, 5-amino-2-(2-phenylethyl)-7-[4-(4-chlorophenoxyacetyl)piperazin-1-yl]oxazolo[5,4-d]pyrimidine], the IC50 in experiment [1] and in experiment [2] was over 10 µM in each case.

`COc1ccc(OCC(=O)N2CCN(c3nc(N)nc4sc(-c5ccc(Cl)cc5)nc34)CC2)cc1` [Example 270, 1-(4-(5-amino-2-(4-chlorophenyl)thiazolo[5,4-d]pyrimidin-7-yl)piperazin-1-yl)-2-(4-methoxyphenoxy)ethanone]: the IC50 turned out to be 0.18 µM in experiment [1] and 0.45 µM in experiment [2].

Take `Nc1nc(N2CCN(C(=O)Nc3ccc(Cl)cc3)CC2)c2cc(-c3ccccc3)sc2n1` [Example 331, 4-(2-amino-6-phenylthieno[2,3-d]pyrimidin-4-yl)-N-(4-chlorophenyl)piperazine-1-carboxamide]: the IC50 in experiment [1] and in experiment [2] was over 10 µM throughout.

With `Nc1nc(N2CCN(C(=O)COc3ccc(Cl)cc3)CC2)c2nc(-c3ccc(Cl)cc3)sc2n1` [Example 123, 5-amino-7-[4-(4-chlorophenoxyacetyl)piperazin-1-yl]-2-(4-chlorophenyl)thiazolo[5,4-d]pyrimidine], the IC50 was 3.73 µM in experiment [1] and 1.2 µM in experiment [2].

Turning to `Cc1ccc(-c2nc3c(N4CCN(C(=O)COc5ccc(Cl)cc5)CC4)nc(N)nc3[nH]2)cc1` [Example 396, 1-(4-(2-amino-8-p-tolyl-9H-purin-6-yl)piperazin-1-yl)-2-(4-chlorophenoxy)ethanone], the figures for the IC50 in experiment [1] and in experiment [2] were 0.49 µM and 4.97 µM, respectively.

On to `C[S+]([O-])c1nc2c(N3CCN(C(=O)COc4ccc(Cl)cc4)CC3)nc(N)nc2s1` (stereo not shown) [Example 126, 5-amino-7-[4-(4-chlorophenoxyacetyl)piperazin-1-yl]-2-methylsulfinyl-thiazolo[5,4-d]pyrimidine], for which the IC50 in experiment [1] came out at 5.47 µM; in experiment [2], 3.82 µM.

For `Nc1nc(N2CCN(C(=O)COc3ccc(OC(F)(F)F)cc3)CC2)c2nc(-c3cccnc3)sc2n1` [Example 273, 1-(4-(5-amino-2-(pyridin-3-yl)thiazolo[5,4-d]pyrimidin-7-yl)piperazin-1-yl)-2-(4-trifluoromethoxyphenoxy)ethanone], the IC50 was found to be 0.81 µM in experiment [1] and 4.84 µM in experiment [2].

For `Cc1cccc(NC(=O)N2CCN(c3nc(N)nc4oc(CCc5ccc(F)cc5)nc34)CC2)c1` [Example 196, 5-amino-2-[2-(4-fluorophenyl)ethyl]-7-(4-m-tolylcarbamoylpiperazin-1-yl)-oxazolo[5,4-d]pyrimidine], the IC50 in experiment [1] and in experiment [2] was over 10 µM in each case.

Take `Nc1nc(N2CCN(C(=O)Nc3ccc(Cl)cc3)CC2)c2nc(-c3cccnc3)sc2n1` [Example 277, 4-(5-amino-2-(pyridin-3-yl)thiazolo[5,4-d]pyrimidin-7-yl)-N-(4-chlorophenyl)piperazine-1-carboxamide]: the figures for the IC50 in experiment [1] and in experiment [2] were 0.74 µM and 0.83 µM, respectively.

For `COc1ccc(CNC(=O)N2CCN(c3nc(N)nc4sc(-c5cccnc5)nc34)CC2)cc1` [Example 278, 4-(5-amino-2-(pyridin-3-yl)thiazolo[5,4-d]pyrimidin-7-yl)-N-(4-methoxybenzyl)piperazine-1-carboxamide], the IC50 in experiment [1] was 0.75 µM; in experiment [2] it was 0.68 µM.

`COCc1nc2c(N3CCN(C(=O)COc4ccc(Cl)cc4)CC3)nc(N)nc2o1` [Example 186, 5-amino-7-[4-(4-chlorophenoxyacetyl)piperazin-1-yl]-2-methoxylmethyloxazolo[5,4-d]pyrimidine]: the IC50 in experiment [1] and in experiment [2] was over 10 µM each time.

`Nc1nc(N2CCN(C(=O)COc3ccc(F)cc3)CC2)c2nc(-c3ccco3)sc2n1` [Example 209, 1-(4-(5-amino-2-(furan-2-yl)thiazolo[5,4-d]pyrimidin-7-yl)piperazin-1-yl)-2-(4-fluorophenoxy)ethanone]: the IC50 stood at 0.51 µM in experiment [1] and 0.57 µM in experiment [2].

Take `Nc1nc(N2CCN(C(=O)COc3cccc(Cl)c3)CC2)c2nc(-c3ccc(F)cc3)sc2n1` [Example 214, 1-(4-(5-amino-2-(4-fluorophenyl)thiazolo[5,4-d]pyrimidin-7-yl)piperazin-1-yl)-2-(3-chlorophenoxy)ethanone]: the results for the IC50 in experiment [1] and in experiment [2] were 0.73 µM and 6.02 µM, respectively.

Take `Nc1nc(N2CCN(C(=O)COc3ccccc3)CC2)c2nc(-c3ccc(F)cc3)[nH]c2n1` [Example 401, 1-(4-(2-amino-8-(4-fluorophenyl)-9H-purin-6-yl)piperazin-1-yl)-2-phenoxyethanone]: the IC50 in experiment [1] and in experiment [2] was over 10 µM each time.

These data come from patent US9573966B2, “Anti-cancer activity of novel bicyclic heterocycles” (Katholieke Universiteit Leuven, K.U.Leuven R&D, priority 2010, dated 2017).
